Measurements: ChEMBL document CHEMBL5465560, “Selectivity Literature for EUbOPEN Chemogenomic Library” (2024)
One block for each molecule: values may come before it.

Tests used:
[1] = biological target: Mast/stem cell growth factor receptor Kit (Homo sapiens, UniProt P10721); experiment: Selectivity interaction (Kinase panel (Invitrogen)) EUB0000639a KIT; conditions: at 200 nM
[2] = biological target: Phosphatidylinositol 4-phosphate 3-kinase C2 domain-containing subunit beta (Homo sapiens) (UniProt O00750); experiment: Selectivity interaction (Kinase panel (Invitrogen)) EUB0000639a PIK3C2B; conditions: at 200 nM
[3] = biological target: T1, Protein arginine N-methyltransferase 9 (Homo sapiens) (UniProt Q6P2P2); conditions: at 10 µM
T1 sequence (whole entry): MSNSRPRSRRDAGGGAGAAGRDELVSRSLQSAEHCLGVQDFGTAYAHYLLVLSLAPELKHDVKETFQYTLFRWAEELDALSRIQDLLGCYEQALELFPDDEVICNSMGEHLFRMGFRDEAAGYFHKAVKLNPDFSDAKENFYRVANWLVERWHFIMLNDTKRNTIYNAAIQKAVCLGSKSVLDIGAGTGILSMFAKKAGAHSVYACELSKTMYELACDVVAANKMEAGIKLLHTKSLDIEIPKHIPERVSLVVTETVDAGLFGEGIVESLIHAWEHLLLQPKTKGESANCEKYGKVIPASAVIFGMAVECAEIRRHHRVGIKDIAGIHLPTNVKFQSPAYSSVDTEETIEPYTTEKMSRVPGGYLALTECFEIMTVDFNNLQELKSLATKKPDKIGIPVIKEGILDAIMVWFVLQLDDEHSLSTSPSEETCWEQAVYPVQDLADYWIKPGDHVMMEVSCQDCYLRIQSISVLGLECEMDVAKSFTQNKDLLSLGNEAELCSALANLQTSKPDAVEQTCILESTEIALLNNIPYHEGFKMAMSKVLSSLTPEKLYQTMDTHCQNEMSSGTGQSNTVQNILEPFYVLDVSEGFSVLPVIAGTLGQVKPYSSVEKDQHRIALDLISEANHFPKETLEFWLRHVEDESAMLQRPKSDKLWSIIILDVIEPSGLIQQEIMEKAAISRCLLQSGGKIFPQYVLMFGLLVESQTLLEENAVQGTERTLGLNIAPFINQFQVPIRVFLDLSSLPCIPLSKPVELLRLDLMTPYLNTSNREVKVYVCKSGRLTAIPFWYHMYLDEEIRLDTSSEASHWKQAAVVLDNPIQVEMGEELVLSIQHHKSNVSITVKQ

[4] = biological target: T2, cAMP-dependent protein kinase catalytic subunit PRKX (Homo sapiens) (UniProt P51817); experiment: Selectivity interaction (KinomeScan (DiscoverX)) EUB0001619a PRKX; conditions: at 1 µM
T2 sequence (whole entry): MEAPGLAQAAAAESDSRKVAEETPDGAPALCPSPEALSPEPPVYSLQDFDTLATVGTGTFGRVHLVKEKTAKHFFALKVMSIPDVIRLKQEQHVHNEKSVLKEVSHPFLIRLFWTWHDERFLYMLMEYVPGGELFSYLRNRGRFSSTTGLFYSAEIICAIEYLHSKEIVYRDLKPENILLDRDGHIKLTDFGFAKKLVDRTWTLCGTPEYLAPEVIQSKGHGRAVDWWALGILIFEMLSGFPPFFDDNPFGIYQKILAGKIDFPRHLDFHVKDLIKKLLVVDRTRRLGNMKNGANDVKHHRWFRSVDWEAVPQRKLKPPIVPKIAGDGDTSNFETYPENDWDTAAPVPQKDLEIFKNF

[5] = biological target: Ribosomal protein S6 kinase alpha-4 (Homo sapiens) (UniProt O75676); experiment: Selectivity interaction (KinomeScan (DiscoverX)) EUB0001619a RPS6KA4; conditions: at 1 µM
[6] = biological target: Serine/threonine-protein kinase MARK1 (Homo sapiens) (UniProt Q9P0L2); experiment: Selectivity interaction (KinomeScan (DiscoverX)) EUB0000607a MARK1; conditions: at 10 µM
[7] = biological target: Proto-oncogene tyrosine-protein kinase Src (Homo sapiens, UniProt P12931); experiment: Selectivity interaction (SelectScreen profiling (Invitrogen)) EUB0000607a SRC; conditions: at 2 µM
[8] = biological target: T3, Inhibitor of nuclear factor kappa-B kinase subunit beta (Homo sapiens) (UniProt O14920); experiment: Selectivity interaction (KinomeScan (DiscoverX)) EUB0000666a IKBKB; conditions: at 10 µM
T3 sequence (whole entry): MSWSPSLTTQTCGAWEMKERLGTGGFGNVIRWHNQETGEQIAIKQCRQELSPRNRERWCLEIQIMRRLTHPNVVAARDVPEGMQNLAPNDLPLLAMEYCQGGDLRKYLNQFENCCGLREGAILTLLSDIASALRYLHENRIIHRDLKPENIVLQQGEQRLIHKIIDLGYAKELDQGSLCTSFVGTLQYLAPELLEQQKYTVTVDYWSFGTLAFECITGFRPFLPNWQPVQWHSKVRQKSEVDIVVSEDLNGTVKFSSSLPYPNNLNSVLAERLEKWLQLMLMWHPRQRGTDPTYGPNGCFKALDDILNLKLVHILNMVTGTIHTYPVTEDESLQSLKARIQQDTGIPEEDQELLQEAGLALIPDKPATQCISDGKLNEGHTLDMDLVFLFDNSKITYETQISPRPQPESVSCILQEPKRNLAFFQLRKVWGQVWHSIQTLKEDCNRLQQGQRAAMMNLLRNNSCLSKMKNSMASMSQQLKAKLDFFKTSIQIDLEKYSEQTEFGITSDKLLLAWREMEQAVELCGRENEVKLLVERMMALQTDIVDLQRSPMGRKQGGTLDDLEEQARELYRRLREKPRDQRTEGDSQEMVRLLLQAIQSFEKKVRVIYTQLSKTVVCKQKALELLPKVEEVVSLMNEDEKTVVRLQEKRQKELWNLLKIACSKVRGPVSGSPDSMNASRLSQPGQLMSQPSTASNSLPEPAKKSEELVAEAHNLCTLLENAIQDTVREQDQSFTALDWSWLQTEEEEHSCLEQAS

Chain of Phosphatidylinositol 4-phosphate 3-kinase C2 domain-containing subunit beta (Homo sapiens) (O00750 whole entry, the tested form may be a part): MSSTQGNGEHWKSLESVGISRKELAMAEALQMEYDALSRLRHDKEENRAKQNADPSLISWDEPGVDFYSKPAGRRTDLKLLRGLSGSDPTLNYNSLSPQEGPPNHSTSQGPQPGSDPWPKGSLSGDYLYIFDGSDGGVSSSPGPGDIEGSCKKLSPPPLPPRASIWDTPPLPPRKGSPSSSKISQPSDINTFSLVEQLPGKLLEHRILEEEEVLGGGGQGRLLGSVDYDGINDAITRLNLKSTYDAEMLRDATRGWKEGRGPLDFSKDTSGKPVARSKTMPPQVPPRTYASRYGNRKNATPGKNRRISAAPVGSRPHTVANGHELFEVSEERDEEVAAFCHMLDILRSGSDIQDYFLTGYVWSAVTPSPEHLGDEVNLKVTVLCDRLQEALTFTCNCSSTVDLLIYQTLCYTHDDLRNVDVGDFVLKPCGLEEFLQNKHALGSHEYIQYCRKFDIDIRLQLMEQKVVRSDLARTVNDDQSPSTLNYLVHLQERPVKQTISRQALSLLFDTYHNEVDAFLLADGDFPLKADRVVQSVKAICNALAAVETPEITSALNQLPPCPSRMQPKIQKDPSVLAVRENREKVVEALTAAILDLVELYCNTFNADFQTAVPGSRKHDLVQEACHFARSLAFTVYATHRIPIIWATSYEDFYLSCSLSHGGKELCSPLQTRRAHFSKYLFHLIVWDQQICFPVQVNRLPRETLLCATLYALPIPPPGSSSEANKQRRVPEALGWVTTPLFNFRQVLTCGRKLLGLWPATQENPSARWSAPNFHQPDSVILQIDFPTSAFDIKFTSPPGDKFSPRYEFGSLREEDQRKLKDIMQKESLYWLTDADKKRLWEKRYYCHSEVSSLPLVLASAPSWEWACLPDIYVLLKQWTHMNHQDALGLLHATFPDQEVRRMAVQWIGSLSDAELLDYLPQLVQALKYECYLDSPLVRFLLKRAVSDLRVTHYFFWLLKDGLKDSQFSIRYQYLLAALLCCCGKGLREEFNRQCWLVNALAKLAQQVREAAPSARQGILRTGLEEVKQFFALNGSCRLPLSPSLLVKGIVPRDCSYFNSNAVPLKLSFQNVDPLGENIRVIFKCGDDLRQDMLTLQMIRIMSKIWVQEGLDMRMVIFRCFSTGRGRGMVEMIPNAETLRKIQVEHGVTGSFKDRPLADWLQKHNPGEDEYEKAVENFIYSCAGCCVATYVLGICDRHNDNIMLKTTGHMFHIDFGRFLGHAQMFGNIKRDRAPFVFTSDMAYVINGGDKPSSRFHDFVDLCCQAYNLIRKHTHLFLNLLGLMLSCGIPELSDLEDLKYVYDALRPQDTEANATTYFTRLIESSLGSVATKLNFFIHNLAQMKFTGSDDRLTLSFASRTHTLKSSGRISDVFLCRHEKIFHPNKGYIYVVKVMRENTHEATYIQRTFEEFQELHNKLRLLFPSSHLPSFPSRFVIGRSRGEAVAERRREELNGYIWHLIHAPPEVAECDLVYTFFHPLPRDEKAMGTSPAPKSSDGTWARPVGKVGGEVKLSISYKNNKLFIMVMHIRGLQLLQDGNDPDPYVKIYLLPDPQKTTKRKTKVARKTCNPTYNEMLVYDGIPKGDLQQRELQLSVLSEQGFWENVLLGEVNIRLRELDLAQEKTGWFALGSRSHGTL
Chain of Proto-oncogene tyrosine-protein kinase Src (P12931 2-536 limits assumed): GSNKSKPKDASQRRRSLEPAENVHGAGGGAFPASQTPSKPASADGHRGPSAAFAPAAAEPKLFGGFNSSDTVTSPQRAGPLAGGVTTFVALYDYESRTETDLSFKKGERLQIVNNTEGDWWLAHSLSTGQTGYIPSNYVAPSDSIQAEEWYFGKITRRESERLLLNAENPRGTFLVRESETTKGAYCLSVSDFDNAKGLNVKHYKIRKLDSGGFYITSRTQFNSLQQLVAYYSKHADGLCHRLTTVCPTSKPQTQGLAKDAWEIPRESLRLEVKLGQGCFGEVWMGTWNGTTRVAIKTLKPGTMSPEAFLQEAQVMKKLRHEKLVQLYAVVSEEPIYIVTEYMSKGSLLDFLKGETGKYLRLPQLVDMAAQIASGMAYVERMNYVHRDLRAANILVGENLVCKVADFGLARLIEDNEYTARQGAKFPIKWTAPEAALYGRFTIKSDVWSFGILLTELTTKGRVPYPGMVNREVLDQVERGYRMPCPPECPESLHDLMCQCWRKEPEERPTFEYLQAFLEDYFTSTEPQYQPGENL
Chain of Ribosomal protein S6 kinase alpha-4 (Homo sapiens) (O75676 whole entry, looked up): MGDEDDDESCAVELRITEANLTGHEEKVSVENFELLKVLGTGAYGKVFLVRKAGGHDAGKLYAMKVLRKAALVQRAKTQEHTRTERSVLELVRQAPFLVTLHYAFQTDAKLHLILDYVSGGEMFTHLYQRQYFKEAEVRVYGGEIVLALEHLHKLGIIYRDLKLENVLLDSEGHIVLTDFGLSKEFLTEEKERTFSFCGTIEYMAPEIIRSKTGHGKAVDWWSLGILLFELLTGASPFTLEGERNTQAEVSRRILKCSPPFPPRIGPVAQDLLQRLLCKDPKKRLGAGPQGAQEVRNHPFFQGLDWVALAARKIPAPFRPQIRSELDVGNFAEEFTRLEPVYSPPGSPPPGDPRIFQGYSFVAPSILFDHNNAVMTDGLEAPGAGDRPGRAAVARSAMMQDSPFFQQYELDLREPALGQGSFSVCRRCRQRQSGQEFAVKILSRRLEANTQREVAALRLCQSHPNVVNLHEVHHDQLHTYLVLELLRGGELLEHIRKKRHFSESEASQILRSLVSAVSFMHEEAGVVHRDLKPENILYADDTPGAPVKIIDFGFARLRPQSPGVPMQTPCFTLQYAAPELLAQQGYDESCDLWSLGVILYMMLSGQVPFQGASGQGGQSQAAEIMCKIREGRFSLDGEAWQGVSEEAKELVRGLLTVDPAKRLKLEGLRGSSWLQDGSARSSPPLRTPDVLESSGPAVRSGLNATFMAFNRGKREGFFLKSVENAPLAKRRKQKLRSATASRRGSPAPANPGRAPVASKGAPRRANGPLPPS
Chain of Mast/stem cell growth factor receptor Kit (P10721 whole entry, the tested form may be a part): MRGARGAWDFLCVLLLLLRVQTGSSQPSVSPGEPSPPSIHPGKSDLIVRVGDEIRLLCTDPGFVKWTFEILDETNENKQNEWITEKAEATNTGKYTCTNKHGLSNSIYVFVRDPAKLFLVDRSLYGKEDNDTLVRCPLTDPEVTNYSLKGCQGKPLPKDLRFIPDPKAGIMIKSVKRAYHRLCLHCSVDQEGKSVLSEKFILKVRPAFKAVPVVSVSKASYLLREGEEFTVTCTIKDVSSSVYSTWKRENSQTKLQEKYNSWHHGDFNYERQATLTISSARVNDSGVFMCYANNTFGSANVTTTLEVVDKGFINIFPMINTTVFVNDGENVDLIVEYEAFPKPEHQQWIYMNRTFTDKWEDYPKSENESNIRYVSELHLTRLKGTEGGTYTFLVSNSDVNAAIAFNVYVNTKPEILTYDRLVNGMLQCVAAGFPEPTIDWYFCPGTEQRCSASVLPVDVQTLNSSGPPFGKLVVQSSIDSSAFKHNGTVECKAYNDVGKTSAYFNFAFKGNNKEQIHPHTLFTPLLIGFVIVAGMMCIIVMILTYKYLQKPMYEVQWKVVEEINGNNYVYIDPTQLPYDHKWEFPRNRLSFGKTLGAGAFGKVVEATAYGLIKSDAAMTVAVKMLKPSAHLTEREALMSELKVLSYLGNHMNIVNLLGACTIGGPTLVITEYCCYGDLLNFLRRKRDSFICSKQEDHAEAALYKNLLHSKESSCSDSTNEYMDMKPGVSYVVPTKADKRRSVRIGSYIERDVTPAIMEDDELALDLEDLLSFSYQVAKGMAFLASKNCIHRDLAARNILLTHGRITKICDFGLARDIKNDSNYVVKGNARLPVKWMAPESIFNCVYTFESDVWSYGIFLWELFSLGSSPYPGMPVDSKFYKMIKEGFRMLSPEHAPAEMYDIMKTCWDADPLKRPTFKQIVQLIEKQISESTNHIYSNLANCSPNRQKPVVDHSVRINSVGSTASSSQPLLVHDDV
Chain of Serine/threonine-protein kinase MARK1 (Homo sapiens) (Q9P0L2 whole entry, looked up): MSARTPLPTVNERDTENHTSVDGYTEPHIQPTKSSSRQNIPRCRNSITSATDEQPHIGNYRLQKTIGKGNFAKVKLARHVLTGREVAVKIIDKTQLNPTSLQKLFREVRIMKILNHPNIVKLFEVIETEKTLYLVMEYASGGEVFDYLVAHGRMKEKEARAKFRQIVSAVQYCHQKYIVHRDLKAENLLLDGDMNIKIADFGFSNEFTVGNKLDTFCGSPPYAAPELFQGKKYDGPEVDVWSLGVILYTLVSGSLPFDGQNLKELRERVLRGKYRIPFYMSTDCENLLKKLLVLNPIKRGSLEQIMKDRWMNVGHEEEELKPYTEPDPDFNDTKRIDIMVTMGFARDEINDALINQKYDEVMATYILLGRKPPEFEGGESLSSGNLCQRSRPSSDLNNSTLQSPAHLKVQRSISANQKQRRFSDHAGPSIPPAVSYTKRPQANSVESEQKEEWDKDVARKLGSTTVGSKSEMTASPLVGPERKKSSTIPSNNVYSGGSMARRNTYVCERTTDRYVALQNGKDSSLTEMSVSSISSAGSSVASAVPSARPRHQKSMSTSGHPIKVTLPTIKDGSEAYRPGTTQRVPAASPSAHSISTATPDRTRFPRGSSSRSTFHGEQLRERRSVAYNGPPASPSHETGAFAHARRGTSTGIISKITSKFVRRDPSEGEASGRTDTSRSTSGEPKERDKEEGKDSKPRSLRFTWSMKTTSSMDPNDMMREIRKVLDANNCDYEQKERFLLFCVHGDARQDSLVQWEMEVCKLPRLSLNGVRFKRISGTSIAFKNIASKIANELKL

% of inhibition [1]: 2.99% | % of inhibition [2]: 7.24%
Structure (SMILES): CC[C@@H]1[C@H](F)C(=O)N[C@@H]1COc1nccc2cc(C(N)=O)c(OC)cc12 [ZIMLOVISERTIB]

% activity [3]: > 90%
Structure (SMILES): CNCCN1CCC(c2cc(CN(C)C(=O)c3cccc(Oc4ccccc4)c3)ccn2)CC1

Structure (SMILES): N#Cc1cccc(-c2c[nH]c3ncnc(N4CCOCC4)c23)c1
% of control [4]: 100% | % of control [5]: 100%

Structure (SMILES): CNC(=O)Nc1ccc(-c2nc(N3CC4CCC(C3)O4)c3cnn(C4CCC5(CC4)OCCO5)c3n2)cc1
% of control [6]: 100% | % of inhibition [7]: 7%

Structure (SMILES): O=C(NOC[C@H](O)CO)c1ccc(F)c(F)c1Nc1ccc(I)cc1F
% of control [8]: 79%
